Legend:
[1] = HPLC reactivity assay with glutathione (GSH stability); type: physicochemical; details: 5×GSH, basic conditions (TMG)
Description: Glutathione (GSH) adduction to compounds is a mechanism of metabolism for compounds administered to animals and humans. Accordingly, an HPLC reactivity assay^72 was performed to evaluate whether sulfonyl-triazoles (HHS-475) react with GSH. HHS-475 (see Example 1) was used as an exemplary SuTEx compound. Initially, the HPLC assay was used to monitor the rapid reaction of HHS-475 with the model nucleophile p-cresol (as a mimic of the tyrosine side chain) under basic conditions (TMG). […] The 5×GSH was used because GSH is typically found at high concentrations in vivo.

HEK293T, Jurkat cells = assay: Live cell chemical proteomic profiling with SuTEx probes; type: cell-based, human; details: 100 μM, 2 hr, 37° C.; membrane and soluble fractions; both probes
Description: Cells grown to ˜90% confluency in 10 cm plates were treated with DMSO vehicle or sulfonyl-triazole probe (10 μL of 1000×DMSO stock) in serum-free media for the indicated concentrations and times at 37° C. with 5% CO2. After treatment, cells were washed with cold PBS twice before harvesting and preparation for gel-based chemical proteomic evaluation as described above. For LC-MS studies, protein concentrations were normalized to 2.3 mg/mL and 432 μL (for 1 mg final protein amount) were used for sample preparation as detailed below.
(§1) Proteomes were diluted to 2.3 mg/mL in PBS and sample aliquots (432 μL) were treated with sulfonyl-triazole or -fluoride probes at the indicated concentrations (5 μL, 100× stock in DMSO), mixed gently and incubated for 1 h at room temperature. Probe-modified proteomes were subjected to CuAAC conjugation to desthiobiotin-PEG3-azide (10 μL of 10 mM stock in DMSO; final concentration of 200 μM) using TCEP (10 μL of fresh 50 mM stock in water; 1 mM final concentration), TBTA ligand (33 μL of a 1.7 mM 4:1 t-butanol/DMSO stock, 100 μM final concentration), and CuSO4 (10 μL of 50 mM stock, 1 mM final concentration). Samples were mixed by vortexing and then incubated for 1 h at room temperature. Excess reagents were removed by chloroform-methanol extraction as previously described^51. […]

[2] = HPLC assay, n-butylamine reactivity against a sulfonyl probe mixture; type: physicochemical; details: TMG 3.3 equivalents
Description: The following reagents were prepared and kept at 0° C. prior to use: 0.1 M solution of caffeine in acetonitrile (ACN), 1.0 M solution of n-butylamine, p-cresol, tetramethylguanidine (TMG), acetic acid in ACN, and 10 mM solution of the probes in a mixture of DMF-ACN (v/v=10:90) are made.
(ii) n-Butylamine reactivity against a probe mixture: Reactivity of sulfonyl probes against n-butylamine (3.3 eq) was performed as described above except the amount of TMG was fixed at 3.3 eq.

[3] = test system: human cell proteomes (HEK293T, A549, DM93, H82, and Jurkat cells); assay: LC-MS chemical proteomics of probe-modified tyrosine sites across 5 cell proteomes; type: binding; details: HHS-465 and -475 together; 100 μM, 1 hr, 25° C.
Description: as §1, with “described^51. Protein pellets were re-suspended in 500 μL of 6M urea/25 mM ammonium bicarbonate followed by DTT reduction and IAA alkylation as previously described^5. Excess reagents were removed by chloroform/methanol extraction as described above, and the protein pellet was re-suspended in 500 μL of 25 mM ammonium bicarbonate and then digested to peptides using trypsin/Lys-C (7.5 μg in 15 μL of ammonium bicarbonate, sequencing grade from Promega, Madison, Wisconsin, United States of America) was added to the mixture and incubated for 3 hrs at 37° C.” for “described^51.”

C#CCNC(=O)c1ccc(S(=O)(=O)n2cncn2)cc1 [HHS-475, 4-((1H-1,2,4-Triazol-1-yl)sulfonyl)-N-(prop-2-yn-1-yl)benzamide]
reaction with GSH [1]: negligible reaction
distinct tyrosine sites measured in live cell studies, in total per cell line (HEK293T, Jurkat cells): ~3,500 sites
time to complete reaction with n-butylamine [2]: 6 h
tyrosine sites identified in aggregate across 5 cell proteomes [3]: ~8,000 sites

From patent US12366579B2, “Sulfur-heterocycle exchange chemistry and uses thereof” (University of Virginia Patent Foundation, priority 2019, dated 2025)
